From patent US9297017B2, “Methods and compositions for targeted protein degradation” (University of Washington, priority 2010, dated 2016)
Read-outs that look alike come from different tables or passages of the source.

What was measured:
[1] = target: T1, COI1/JAZ1 co-receptor (Arabidopsis thaliana, UniProt O04197+Q9LMA8); experiment: Ligand-binding based reconstitution assay (inositol phosphate rescue) with dialyzed COI1/ASK1 and JAZ1
T1 construct: Full-length Arabidopsis thaliana COI1 and ASK1 were co-expressed; Full-length JAZ substrate proteins were expressed as 6×His-fusion proteins in Escherichia coli; GST (cleaved yes); 6xHis; made in house; host or cells: Hi5 insect cells (COI1/ASK1); Escherichia coli (JAZ1)
T1 sequence (O04197 1-592): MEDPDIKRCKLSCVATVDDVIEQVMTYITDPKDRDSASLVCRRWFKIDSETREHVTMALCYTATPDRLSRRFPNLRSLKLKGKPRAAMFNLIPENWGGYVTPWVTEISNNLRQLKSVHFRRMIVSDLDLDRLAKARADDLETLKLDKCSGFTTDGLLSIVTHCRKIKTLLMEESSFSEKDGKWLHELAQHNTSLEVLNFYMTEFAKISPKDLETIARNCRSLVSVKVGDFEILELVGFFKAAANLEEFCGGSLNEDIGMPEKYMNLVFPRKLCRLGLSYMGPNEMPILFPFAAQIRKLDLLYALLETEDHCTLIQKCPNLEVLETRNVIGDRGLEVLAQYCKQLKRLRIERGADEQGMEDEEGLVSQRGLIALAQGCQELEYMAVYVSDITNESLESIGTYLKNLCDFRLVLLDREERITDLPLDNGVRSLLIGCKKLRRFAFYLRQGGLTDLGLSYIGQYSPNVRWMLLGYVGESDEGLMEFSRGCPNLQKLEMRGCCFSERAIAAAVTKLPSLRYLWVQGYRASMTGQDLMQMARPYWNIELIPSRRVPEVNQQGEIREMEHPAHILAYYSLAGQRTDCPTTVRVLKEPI
T1 sequence (Q39255 1-160 partner): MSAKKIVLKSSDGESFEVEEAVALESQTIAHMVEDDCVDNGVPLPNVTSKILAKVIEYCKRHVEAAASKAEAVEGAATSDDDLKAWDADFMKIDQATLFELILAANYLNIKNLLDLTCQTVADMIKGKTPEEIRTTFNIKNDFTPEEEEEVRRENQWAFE
T1 sequence (Q9LMA8 1-253): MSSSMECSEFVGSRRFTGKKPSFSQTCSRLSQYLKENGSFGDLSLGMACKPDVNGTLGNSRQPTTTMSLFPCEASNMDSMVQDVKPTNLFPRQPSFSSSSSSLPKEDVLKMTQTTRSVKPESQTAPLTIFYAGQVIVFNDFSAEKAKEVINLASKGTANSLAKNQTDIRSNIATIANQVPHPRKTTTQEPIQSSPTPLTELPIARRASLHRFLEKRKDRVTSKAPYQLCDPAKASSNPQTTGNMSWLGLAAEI
Description: Radioligand binding was assayed on purified proteins, with 2 mg COI1/ASK1 complex and JAZ proteins at a 1:3 molar ratio. Reactions were prepared in […] final volume and in a binding buffer containing 20 mM Tris-HCl 200 mM NaCl, and 10% glycerol. Saturation binding experiments were conducted with serial dilutions of 3H-coronatine in binding buffer. Nonspecific binding was determined in the presence of […] coronatine. Competition binding experiments were conducted with serial dilutions of JA-Ile in the presence of 100 nM ^3H coronatine with nonspecific binding determined in the presence of […] coronatine. Total binding was determined in the presence of vehicle only. Two-point binding experiments were performed in the presence of 100 nM or 300 nM ^3H-coronatine with nonspecific binding determined in the presence of […] coronatine. Following incubation with mixing at 4° C., all samples were collected with a cell harvester (Brandel, Gaithersburg, Md.) on polyethyleneimine (Sigma)-treated filters. Samples were incubated in liquid scintillation fluid for >1 hour before counting with a Packard Tri-Carb 2200 CA liquid scintillation analyzer (Packard Instrument Co.). Saturation binding experiments were analyzed by nonlinear regression, competition binding experiments by nonlinear regression with Ki calculation as described previously (Cheng 1973), and concentration-response data by sigmoidal dose-response curve fitting, all using GraphPad Prism version 4.00 for MacOSX.
To assess the functional role of Ins(1,2,4,5,6)P5 in the COI1/JAZ1 co-receptor, a protocol was developed for stripping the co-purified InsP5 from COI1 without denaturing the protein. Briefly, proteins were mixed with 10% glycerol and incubated in 2 M ammonium phosphate, 100 mM Bis-Tris propane, pH 7.0, 200 mM NaCl, and 10% glycerol at 4° C. for >24 hours with a minimum of 3× buffer changes at 100× sample volume. Samples were then transferred to 20 mM Tris-HCl, pH 8.0, 200 mM NaCl, and 10% glycerol at 4° C. for >24 hours with a minimum of three buffer changes at 100× sample volume. Inositol phosphate rescue experiments were conducted according to the radioligand binding assays described above in the presence of 300 nM ^3H-coronatine with nonspecific binding determined in the presence of 300 μM coronatine.
The resulting COI1/ASK1 complex was tested in a ligand-binding based reconstitution assay. […] From this reconstitution result, it was concluded that Ins(1,2,4,5,6)P5 binding is crucial for the jasmonate coreceptor to perceive the hormone with high sensitivity.

[2] = target: T2, full-length JAZ1 (Arabidopsis thaliana, UniProt Q9LMA8); experiment: Radioligand binding of 3H-coronatine to full-length JAZ1 alone
T2 construct: 6xHis; made in house; host or cells: Escherichia coli
T2 sequence (Q9LMA8 1-253): T1 sequence (Q9LMA8 1-253)
From the text: (§1) (^3H)-labeled coronatine was synthesized by Amersham. Full-length Arabidopsis thaliana COI1 and ASK1 were co-expressed as a glutathione S-transferase (GST) fusion protein and an untagged protein, respectively, in Hi5 suspension insect cells. The COI1/ASK1 complex was isolated from the soluble cell lysate by glutathione affinity chromatography. After on-column tag cleavage by tobacco etch virus protease, the complex was further purified by anion exchange and gel filtration chromatography and concentrated by ultrafiltration to 12-18 mg ml^−1. Full-length JAZ substrate proteins were expressed as 6×His-fusion proteins in Escherichia coli and purified on Ni-NTA resin with subsequent dialysis into 20 mM Tris-HCl, pH 8.0, 200 mM NaCl, and 10% glycerol.
(§2) Radioligand binding was assayed on purified proteins, with 2 mg COI1/ASK1 complex and JAZ proteins at a 1:3 molar ratio. […] Nonspecific binding was determined in the presence of […] coronatine. Competition binding experiments were conducted with serial dilutions of JA-Ile in the presence of 100 nM ^3H coronatine with nonspecific binding determined in the presence of […] coronatine. Total binding was determined in the presence of vehicle only. Two-point binding experiments were performed in the presence of 100 nM or 300 nM ^3H-coronatine with nonspecific binding determined in the presence of 300 mM coronatine. […]

[3] = target: T3, JAZ6F195A/COI1 (Arabidopsis thaliana, UniProt O04197+Q9C9E3, F195A); experiment: Binding of 3H-coronatine (300 nM) to JAZ6F195A/COI1; details: 300 nM 3H-coronatine
T3 construct: Full-length Arabidopsis thaliana COI1 and ASK1 were co-expressed; Full-length JAZ substrate proteins were expressed as 6×His-fusion proteins in Escherichia coli; GST (cleaved yes); 6xHis; made in house; host or cells: Hi5 insect cells (COI1/ASK1); Escherichia coli (JAZ6 F195A)
T3 sequence (O04197 1-592): T1 sequence (O04197 1-592)
T3 sequence (Q9C9E3 1-269 F195A): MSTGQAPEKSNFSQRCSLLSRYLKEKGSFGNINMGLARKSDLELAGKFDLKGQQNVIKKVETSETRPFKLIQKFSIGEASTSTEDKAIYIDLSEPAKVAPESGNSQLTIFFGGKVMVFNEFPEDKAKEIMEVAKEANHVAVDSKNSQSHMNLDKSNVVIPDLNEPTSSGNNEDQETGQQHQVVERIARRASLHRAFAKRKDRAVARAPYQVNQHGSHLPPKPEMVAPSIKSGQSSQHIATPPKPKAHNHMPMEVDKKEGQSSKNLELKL
T3 sequence (Q39255 1-160 partner): T1 sequence (Q39255 1-160 partner)
From the text: as §1, §2

CC[C@H]1C=C(C(=O)N[C@@]2(C(=O)O)C[C@@H]2CC)[C@H]2CCC(=O)[C@H]2C1 [coronatine]
Kd ([1]; 1 μM Ins(1,2,4,5,6)P5, read-out: Kd, saturation binding of 3H-coronatine to dialyzed COI1 in the presence of InsP5): 0.03 µM
Kd ([1]; 1 μM InsP6, read-out: Kd, saturation binding of 3H-coronatine to dialyzed COI1 in the presence of InsP6): 0.037 µM
Binding affinity for JAZ1 alone [2]: minimal binding affinity
Binding affinity for JAZ1 alone ([2]; listed as 3H-coronatine): no appreciable binding affinity
High affinity interaction with COI1/JAZ6 after mutation of the conserved phenylalanine to alanine [3]: abolish the high affinity interaction
